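Here, GI50 denotes the concentration required for 50% inhibition of growth. TGI: total growth inhibition.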
Columns and labels:
Experiment in all cases: growth of human tumour cells (NCI), 384-well format
SNB-19 CNS = system: SNB-19 CNS
MDA-MB-231 breast = system: MDA-MB-231 breast
MCF7 breast = system: MCF7 breast
HS 578T breast = system: HS 578T breast
HCT-15 colon = system: HCT-15 colon
A498 renal = system: A498 renal
SN12C renal = system: SN12C renal
SK-MEL-5 melanoma = system: SK-MEL-5 melanoma
OVCAR-8 ovarian = system: OVCAR-8 ovarian
ACHN renal = system: ACHN renal
SK-MEL-28 melanoma = system: SK-MEL-28 melanoma
HCC-2998 colon = system: HCC-2998 colon
SW-620 colon = system: SW-620 colon

COC(=O)c1ccc2c(C(=Nc3ccc(N(C)C(=O)CN4CCN(C)CC4)cc3)c3ccccc3)c(O)[nH]c2c1
GI50 (SNB-19 CNS): 1440 nM
TGI (SNB-19 CNS): 4320 nM
GI50 (MDA-MB-231 breast): 1720 nM
TGI (MDA-MB-231 breast): 3130 nM
GI50 (MCF7 breast): 1320 nM
TGI (MCF7 breast): 2760 nM
GI50 (HS 578T breast): 1280 nM
TGI (HS 578T breast): 2820 nM
GI50 (HCT-15 colon): 1760 nM
TGI (HCT-15 colon): 3330 nM
GI50 (A498 renal): 1640 nM
TGI (A498 renal): 3070 nM
GI50 (SN12C renal): 1110 nM
TGI (SN12C renal): 2350 nM
GI50 (SK-MEL-5 melanoma): 2190 nM
TGI (SK-MEL-5 melanoma): 3640 nM
GI50 (OVCAR-8 ovarian): 1580 nM
TGI (OVCAR-8 ovarian): 2970 nM
GI50 (ACHN renal): 1360 nM
TGI (ACHN renal): 2890 nM
GI50 (SK-MEL-28 melanoma): 1690 nM
TGI (SK-MEL-28 melanoma): 3080 nM
GI50 (HCC-2998 colon): 1580 nM
TGI (HCC-2998 colon): 2960 nM
GI50 (SW-620 colon): 1820 nM
TGI (SW-620 colon): 3250 nM
